Experimental findings from patent US20040106626A1, “6-Membered unsaturated heterocyclic compounds useful for selective inhibition of the coagulation cascade” (Pharmacia Corporation, priority 2001, published 2004) are described below.

What all share (assay type): biochemical
Assay [1] addresses T1, recombinant soluble tissue factor and recombinant human factor VIIa (TF-VIIa) (Homo sapiens, UniProt P08709).
T1 construct: conversion of coagulation factor VII to VIIa by factor Xa; purchased American Diagnostica, Greenwich CT; host or cells: soluble TF made in house in E. coli
As to the kind of experiment: TF-VIIa assay (chromogenic substrate hydrolysis). The conditions noted are these: reported only as less than or greater than 0.1 uM. The gist of the method:
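Chromogenic read at OD405, compared with control for percent inhibition. Substrate N-methylsulfonyl-D-phe-gly-arg-p-nitroaniline at 0.4 mM is cleaved by recombinant human VIIa (2 nM) complexed with soluble TF (100 nM). Buffer: pH 8.0 Tris-HCl 50 mM, CaCl2 5 mM, NaCl 100 mM, BSA 0.1%.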

The target in another assay is T2, Human factor Xa (Homo sapiens, UniProt P00742).
T2 construct: purchased Enzyme Research Laboratories, South Bend Ind
The assay can be described thus: Xa assay (chromogenic substrate S-2765). Particulars: reported only as less than or greater than 30 uM; read-out: Factor Xa (II) IC50. The gist of the method:
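Chromogenic readout: S-2765 hydrolysis (0.15 mM) by 0.3 nM human FXa was monitored at 405 nm after 60 min at room temperature, with a time-zero background read. Buffer: 50 mM Tris-HCl, pH 8.0, 100 mM NaCl, 0.1% BSA. Inhibition is relative to buffer-only controls.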

In a further assay the target is T3, Human thrombin (Homo sapiens, UniProt P00734).
T3 construct: converts prothrombin (II) to thrombin (IIa); purchased Calbiochem, La Jolla, Calif
As to the kind of experiment: Thrombin assay (chromogenic substrate). Particulars: reported only as less than or greater than 30 uM; read-out: Thrombin (II) IC50. The gist of the method:
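Percent inhibition derived by comparing OD405 nm of compound-treated and control samples. Thrombin cleavage of a p-nitroanilide chromogenic substrate provides the signal.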

The subject of assay [2] is Normal human pooled plasma. As to the kind of experiment: Prothrombin time (PT) clotting assay. The conditions noted are these: concentration at which prothrombin time is prolonged by 2x normal, reported as less than or greater than 50 uM. The gist of the method: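 Normal human pooled plasma incubated with 100 uM compound or saline, then thromboplastin (human tissue factor) added and clotting time recorded in a coagulation machine. Compounds exceeding 3× normal PT (11.0 s) are titrated to find the concentration doubling PT.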

T1 sequence (P08709 213-466 limits assumed): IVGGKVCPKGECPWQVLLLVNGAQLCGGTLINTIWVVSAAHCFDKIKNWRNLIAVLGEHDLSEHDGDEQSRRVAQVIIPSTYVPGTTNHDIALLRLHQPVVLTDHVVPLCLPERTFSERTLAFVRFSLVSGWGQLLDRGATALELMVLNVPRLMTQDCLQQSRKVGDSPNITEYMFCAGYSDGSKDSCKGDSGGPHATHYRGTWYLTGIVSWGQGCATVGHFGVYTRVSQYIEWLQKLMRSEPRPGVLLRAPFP
T1 sequence (P08709 61-212 limits assumed): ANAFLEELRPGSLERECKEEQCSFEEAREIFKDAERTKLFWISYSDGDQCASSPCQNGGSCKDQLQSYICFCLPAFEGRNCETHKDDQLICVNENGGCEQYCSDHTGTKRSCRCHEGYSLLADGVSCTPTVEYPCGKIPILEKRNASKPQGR
T1 sequence (P13726 33-251 partner limits assumed): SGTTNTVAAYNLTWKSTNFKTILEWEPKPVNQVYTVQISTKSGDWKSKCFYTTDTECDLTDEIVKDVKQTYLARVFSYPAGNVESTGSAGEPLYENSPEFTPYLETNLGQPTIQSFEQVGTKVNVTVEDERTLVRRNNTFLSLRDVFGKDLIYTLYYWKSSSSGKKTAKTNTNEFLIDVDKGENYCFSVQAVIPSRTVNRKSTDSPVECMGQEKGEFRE
T2 sequence (P00742 235-488 limits assumed): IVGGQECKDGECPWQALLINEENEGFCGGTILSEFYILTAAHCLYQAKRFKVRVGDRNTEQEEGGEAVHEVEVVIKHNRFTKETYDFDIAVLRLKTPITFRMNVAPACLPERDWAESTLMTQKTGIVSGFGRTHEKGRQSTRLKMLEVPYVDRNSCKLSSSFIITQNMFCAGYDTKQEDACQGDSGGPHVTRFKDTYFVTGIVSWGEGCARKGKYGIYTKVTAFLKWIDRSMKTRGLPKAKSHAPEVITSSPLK
T2 sequence (P00742 41-179 limits assumed): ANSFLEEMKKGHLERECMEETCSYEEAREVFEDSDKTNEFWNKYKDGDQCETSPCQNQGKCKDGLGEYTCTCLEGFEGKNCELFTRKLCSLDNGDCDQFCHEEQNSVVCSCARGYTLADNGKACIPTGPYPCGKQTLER

One may read the IC50 as the concentration that gives 50% inhibition. For the compound `CC[C@H](C)NC(=O)c1cc(N)cc(-c2cnc(NC(C)C)c(=O)n2CC(=O)NCc2ccc(C(=N)N)cc2O)c1.O=C(O)C(F)(F)F` [Example 167, 3-amino-5-[1-[2-({4-[amino(imino)methyl]-2-hydroxybenzyl}amino)-2-oxoethyl]-5-(isopropylamino)-6-oxo-1,6-dihydropyrazin-2-yl]-N-[(1S)-1-methylpropyl]benzamide], the results for the half-inhibitory concentration (IC50) (in assay [1]; at Human factor Xa; on Human thrombin) were under 0.1 µM, over 30 µM and under 30 µM, respectively. Further, the “PT (Prothrombin time) 2xPT” value in assay [2] is under 50.0 µM.
The corresponding values for `CCNC(=O)c1cc(N)cc(-c2cnc(NC(C)C)c(=O)n2CC(=O)NCc2ccc(C(=N)N)cc2)c1` [Example 63] are under 0.1 µM, over 30 µM, over 30 µM and under 50.0 µM.
The corresponding values for `CC[C@H](C)NC(=O)c1cc(N)cc(-c2cnc(NC(C)C)c(=O)n2CC(=O)NCc2c(F)c(O)c(C(=N)N)c(F)c2F)c1.Cl.Cl` [Example 164] are under 0.1 µM, over 30 µM, over 30 µM and under 50.0 µM.
The corresponding values for `CC[C@H](C)NC(=O)c1cc(N)cc(-c2cnc(NC(C)C)c(=O)n2CC(=O)NCc2c(O)cc(C(=N)N)cc2OC)c1` [Example 195] are under 0.1 µM, over 30 µM, over 30 µM and under 50.0 µM.
On to `CC(C)Nc1ncc(-c2cc(N)cc(NC(=O)c3ccc(N(C)C)cc3)c2)n(CC(=O)NCc2ccc(C(=N)N)cc2)c1=O.O=C(O)C(F)(F)F.O=C(O)C(F)(F)F` [Example 142], for which the 50% inhibitory concentration (IC50) in assay [1] is under 0.1 µM; at Human factor Xa, over 30 µM; at Human thrombin, over 30 µM. For the same compound, the “PT (Prothrombin time) 2xPT” value in assay [2] is under 50.0 µM.
As for `CC(C)Nc1ncc(-c2cc(N)cc(NC(=O)CC3CCCC3)c2)n(CC(=O)NCc2ccc(C(=N)N)cc2)c1=O.O=C(O)C(F)(F)F.O=C(O)C(F)(F)F` [Example 141], the values for the IC50 (in assay [1]; on Human factor Xa; at Human thrombin) were under 0.1 µM, over 30 µM and under 30 µM, respectively. In assay [2], the “PT (Prothrombin time) 2xPT” value was under 50.0 µM.
The corresponding values for `CC(C)CS(=O)(=O)c1cc(N)cc(-c2cnc(NC(C)C)c(=O)n2CC(=O)NCc2ccc(C(=N)N)cc2)c1` [Example 74, N-{4-[amino(imino)methyl]benzyl}-2-[6-[3-amino-5-(isobutylsulfonyl)phenyl]-3-(isopropylamino)-2-oxopyrazin-1 (2H)-yl]acetamide] are under 0.1 µM, over 30 µM, over 30 µM and under 50.0 µM.
The corresponding values for `CC[C@@H](C)NC(=O)c1cc(N)cc(-c2cnc(NC(C)C)c(=O)n2CC(=O)NCc2ccc(C(=N)N)cc2O)c1.O=C(O)C(F)(F)F` [Example 240] are under 0.1 µM, over 30 µM, over 30 µM and under 50.0 µM.
The corresponding values for `CC(C)Nc1ncc(-c2cc(N)cc(S(=O)(=O)C3CCCC3)c2)n(CC(=O)NCc2ccc(C(=N)N)cc2)c1=O.O=C(O)C(F)(F)F.O=C(O)C(F)(F)F` [Example 235] are under 0.1 µM, over 30 µM, over 30 µM and under 50.0 µM.
With `Cc1cc(N)cc(-c2cnc(NC(C)C)c(=O)n2CC(=O)NCc2ccc(C(=N)N)cc2)c1.Cl.Cl` [Example 170], the 50% inhibitory concentration (IC50) in assay [1] was under 0.1 µM; on Human factor Xa, over 30 µM; on Human thrombin, over 30 µM. Moreover, in assay [2], the “PT (Prothrombin time) 2xPT” value was under 50.0 µM.
On to `N=C(N)c1ccc(CNC(=O)Cn2c(-c3cc(N)cc(C(=O)O)c3)cnc(NC3CC3)c2=O)cc1.O=C(O)C(F)(F)F` [Example 204, 3-amino-5-[1-[2-({4-[amino(imino)methyl]benzyl}amino)-2-oxoethyl]-5-(cyclopropylamino)-6-oxo-1,6-dihydropyrazin-2-yl]benzoic Acid], for which the IC50 in assay [1] is under 0.1 µM; at Human factor Xa, over 30 µM; at Human thrombin, over 30 µM. In addition, the “PT (Prothrombin time) 2xPT” value in assay [2] is under 50.0 µM.
On to `CC(C)Nc1ncc(-c2cc(N)cc(NC(=O)C(C)C)c2)n(CC(=O)NCc2ccc(C(=N)N)cc2)c1=O` [Example 50, N-{3-amino-5-[1-[2-({4-[amino(imino)methyl]benzyl}amino)-2-oxoethyl]-5-(isopropylamino)-6-oxo-1,6-dihydropyrazin-2-yl]phenyl}-2-methylpropanamide], for which the concentration for half-maximal inhibition (IC50) in assay [1] is under 0.1 µM; at Human factor Xa, over 30 µM; at Human thrombin, under 30 µM. Further, the “PT (Prothrombin time) 2xPT” value in assay [2] was under 50.0 µM.
The corresponding values for `CC(C)Nc1ncc(-c2cc(N)cc(NC(=O)CC(C)(C)C)c2)n(CC(=O)NCc2ccc(C(=N)N)cc2)c1=O.O=C(O)C(F)(F)F.O=C(O)C(F)(F)F` [Example 133] are under 0.1 µM, over 30 µM, under 30 µM and under 50.0 µM.
In the case of `CC(C)Nc1ncc(-c2cc(N)cc(NC(=O)OC(C)(C)C)c2)n(CC(=O)NCc2ccc(C(=N)N)c(O)c2)c1=O` [Example 78], the IC50 is over 0.1 µM in assay [1], over 30 µM on Human factor Xa and over 30 µM on Human thrombin. Moreover, the “PT (Prothrombin time) 2xPT” value in assay [2] is under 50.0 µM.
With `CC(C)Nc1ncc(-c2cc(N)cc(NS(=O)(=O)c3ccc(OC(F)(F)F)cc3)c2)n(CC(=O)NCc2ccc(C(=N)N)cc2)c1=O` [Example 88], the IC50 is over 0.1 µM in assay [1], over 30 µM at Human factor Xa and over 30 µM on Human thrombin. Besides, the “PT (Prothrombin time) 2xPT” value in assay [2] was under 50.0 µM.
For the compound `CCCCOc1cc(N)cc(-c2cnc(NC(C)C)c(=O)n2CC(=O)NCc2ccc(C(=N)N)cc2)c1.O=C(O)C(F)(F)F.O=C(O)C(F)(F)F` [Example 222], the values for the IC50 (in assay [1]; at Human factor Xa; on Human thrombin) were under 0.1 µM, over 30 µM and over 30 µM, respectively. Further, the “PT (Prothrombin time) 2xPT” value in assay [2] was under 50.0 µM.
As for `CC[C@@H](C)NC(=O)c1cc(N)cc(-c2cnc(NC(C)C)c(=O)n2CC(=O)NCc2c(O)cc(C(=N)N)cc2OC)c1` [Example 198], the IC50 is under 0.1 µM in assay [1], over 30 µM on Human factor Xa and over 30 µM on Human thrombin. In addition, in assay [2], the “PT (Prothrombin time) 2xPT” value is under 50.0 µM.
Take `COCCNC(=O)c1cc(N)cc(-c2cnc(NC(C)C)c(=O)n2CC(=O)NCc2ccc(C(=N)N)cc2)c1.O=C(O)C(F)(F)F` [Example 119]: the values for the IC50 (in assay [1]; on Human factor Xa; on Human thrombin) were under 0.1 µM, over 30 µM and under 30 µM, respectively. Further, the “PT (Prothrombin time) 2xPT” value in assay [2] is under 50.0 µM.
The corresponding values for `CC(C)Nc1ncc(-c2cc(N)cc(NS(=O)(=O)CCc3ccccc3)c2)n(CC(=O)NCc2ccc(C(=N)N)cc2)c1=O` [Example 95] are under 0.1 µM, over 30 µM, over 30 µM and under 50.0 µM.
The corresponding values for `CCC(C)CS(=O)(=O)c1cc(N)cc(-c2cnc(NC(C)C)c(=O)n2CC(=O)NCc2ccc(C(=N)N)cc2)c1.O=C(O)C(F)(F)F.O=C(O)C(F)(F)F` (centres unmarked) [Example 237] are under 0.1 µM, over 30 µM, over 30 µM and under 50.0 µM.
